Test system: bcl-xL transfected LNCaP cells
Assay: Drug treatment of bcl-xL transfected and parental LNCaP cells
Format: cell-based, human
Conditions: for apoptosis induction: parental LNCaP cells or neomycin-expressing control-transfected LNCaP cells; for concentration up to which bcl-xL overexpressing LNCaP clones were resistant: treatment for 24 h
Method: LNCaP cells transfected with the neomycin-selectable pSFFV/bcl-xL plasmid or with a control, neomycin-resistant expression vector pSFFV. Aliquots containing 10 μg of plasmid and 5 μg of lipofectin reagent (Life technologies, Inc., Gaithersburg, Md.) in serum-free OPTI-MEM (Life Technologies, Inc.) were added to cultured cells. The transfection media was replaced 4 h later with RPMI-10% FBS medium. Individual colonies were selected from these plates after approximately 3–4 weeks of routine maintenance in RPMI-10% FBS containing 0.6 mg/ml G418 sulfate (Geneticin, Life Technologies, Inc.). The bcl-xL-transformed LNCaP cells were cultured in RPMI-10% FBS, supplemented with 0.3 mg/ml G418 sulfate in 5% CO2 atmosphere.
Two clones of LNCaP cells overexpressing bcl-xL protein (1072-4 and 1072-5) have been obtained after transfection of wild type LNCaP cells with the plasmid vector pSFFV/bcl-xL and lipofectin. Also a mock transfectant clone of LNCaP cells carrying neo® resistance gene (1072-3) was used for the control experiments. […] Western blot analysis for bcl-xL protein was performed as described above. […] For the Northern blot analysis, the total RNA was isolated from the cells using TRIZOL reagent (GIBCO BRL), and 20 μg aliquotes were separated in RNA-formaldehyde gel, blotted onto nylon membranes (Schleicher & Schull), UV-linked and prehybridized for two hours at 42° C. in the standard hybridization solution. Then the blot was hybridized overnight with the PCR-amplified fragment of human bcl-xL cDNA at 42° C. Dcl-xL coding fragment was amplified from pSFFV/bcl-xL plasmid using bcl-x specific primers. The primer sequences were: bcl-x-upstream, 5′-[…]-3′ (SEQ ID NO:36); and bcl-x-downstream, 5′-[…]-3′ (SEQ ID NO:37). Twenty five cycles of amplification were performed in DNA Thermal Cycler (Perkin-Elmer, Norwalk, Conn.) at 94° C. (30 sec), 55° C. (30 sec), and 72° C. (30 sec). The PCR products were analysed on a 1.2% agarose gel. The resultant fragment was labeled by random primer method to the specific activity 10^7 cpm/ng of the probe and used for the hybridization. After washings blots were autoradiographed for 24h at −80° C. Blots were stripped of radioactivity and reprobed with a ^32P-labeled G3PDH probe to confirm the equal loading.
Clonal derivatives of bcl-xL transfected LNCaP cells that were overexpressing high amounts of bcl-xL protein were resistant to taxol (up to 100 nM) and mitoxantrone (up to 4 μM) treatment for 24 h. […] This finding strongly supports the hypothesis that bcl-xL gene product is a factor in the development of chemotherapy resistance in hormone-refractory prostate cancer.

| SMILES | apoptosis induction | concentration up to which bcl-xL overexpressing LNCaP clones were resistant |
| --- | --- | --- |
| O=C1c2c(O)ccc(O)c2C(=O)c2c(NCCNCCO)ccc(NCCNCCO)c21 [mitoxantrone] | induce apoptosis | up to 4 μM |
| CC(=O)O[C@H]1C(=O)[C@@]2(C)[C@H]([C@H](OC(=O)c3ccccc3)[C@]3(O)C[C@H](OC(=O)[C@H](O)[C@@H](NC(=O)c4ccccc4)c4ccccc4)C(C)=C1C3(C)C)[C@]1(OC(C)=O)CO[C@@H]1C[C@@H]2O [taxol] | induce apoptosis | up to 100 nM |
